“Also recorded” adds a separate entry of the source.
Legend:
[1] = target: T1, PRL-3 (Homo sapiens, UniProt O75365); experiment: In vitro PTPase assay, recombinant PRL-3, DiFMUP substrate; type: biochemical; details: comparable conditions
T1 construct: GST (N); made in house; host or cells: DHSa (DH5a) bacteria
Protocol: In vitro PTPase assays were used to determine the effects of compounds on recombinant PTPases, following established procedures using a synthetic phosphotyrosine peptide or DiFMUP as the substrate (Pathak et al., J. Imumol. 167, 3391 (2001)). Briefly, individual PTPases (0.1 µg/reaction) in 50 μL of PTPase buffer (50 mM Tris, pH 7.4) were incubated at 22° C. for 10 minutes or as indicated in the absence or presence of inhibitory compounds. Substrates (0.2 mM phosphotyrosine peptide) were then added and allowed to react at 22° C. for 18 hrs. PTPase activity of individual reactions was measured by adding 100 µL of malachite green solution (UBI) and then quantifying the amounts of free phosphate cleaved by the PTPase from the peptide substrate by spectrometry (OD660 nm). PTPase assays using DiFMUP as a substrate were conducted following a previously described procedure (Matter, et al., Biochem. Biophys. Res. Comm. 283, 1061 (2001)). Relative PTPase activities were calculated based on the formula: (PTPase activity in the presence of an inhibitory compound/PTPase activity in the absence of the compound)× 100%. To assess the reversibility of PTPase inhibition, GST fusion proteins of the PTPases bound on glutathione beads (Pharmacia) were pre-incubated with cold Tris buffer (50 mM Tris, pH 7.0) or Tris buffer containing the inhibitor at 4° C. for 30 minutes. The beads were then washed three times in cold Tris buffer or not washed prior to subjecting to in vitro PTPase assays.

[2] = test system: Renca tumors; experiment: Renca tumors in Balb/c mice; type: in vivo; details: end of treatment; listed as SSG
Protocol: Balb/c and athymic nude Balb/c mice (10 weeks old, female, Taconic Farms, Germantown, N.Y.) were inoculated (s.c.) at the flanks with Renca cells (10^6 cells/site). […] The dose of SSG was similar to the effective daily dose of the drug for the treatment of murine leishmaniasis (Murray, H. W., J. D. Berman, and S. D. Wright. 1988. Immunochemotherapy for intracellular Leishmania donovani infection: gamma interferon plus pentavalent antimony. J Infect Dis 157:973). Tumor volume was measured during the study period and calculated using the formula for a prolate spheroid (V=4/3×a2b) (Lindner, D. J., E. C. Borden, and D. V. Kalvakolanu. 1997. Synergistic antitumor effects of a combination of interferons and retinoic acid on human tumor cells in vitro and in vivo. Clin Cancer Res 3:931). Student's t test was used for assessing the significance of tumor volume differences among differential treatment groups. Mouse viability (daily) and body weights (weekly) were also recorded during the study period. At the end of the study, Renca tumors and major internal organs (heart, kidney, liver, lung and spleen) were harvested for histology and immunohistochemistry analysis.

[3] = test system: HEY cells; experiment: HEY ovarian cancer cell growth, MTT assay; type: cell-based, human; details: 100 μg/ml, day 6
Protocol: NIH3T3 (Yi, et al., Blood 85, 87 (1995)), WM9 (Forsberg, et al., Proc. Nat. Acad Sci. USA 90, 393 (1993)), DU145 (Mickey, et al., Cancer Res. 37, 4049 (1977)), LoVo (Drewinko, et al., Cancer Res. 36, 467 (1976)), HEY (Buick, et al., Cancer Res. 45, 3668 (1985)), U251 (Yoshida, et al., Cancer 50, 410 (1982)), A549 (Giard, et al., J. Natl. Cancer Inst. 51, 1417 (1973)) and SK-N-SH (Helson, et al., Cancer Res. 35, 2594 (1975)) cell lines have been described and were cultured in RPMI 1640 supplemented with 10% fetal calf serum (FCS). For measurement of sodium stibogluconate effects on cell growth in vitro, cells were cultured in the absence (−) or presence (+) of various amounts of sodium stibogluconate for 6 days with viable cells quantified by MTT assays (Mosmann, J. Immunol. Methods 65, 55 (1983)). Percentages of growth inhibition by sodium stibogluconate were calculated (.+−.x

[4] = test system: WiT49-N1 cells; experiment: WiT49-N1 Wilms tumor cell growth, MTT assay; type: cell-based, human; details: single agent, day 6; killing at 100 μg/ml
Protocol: (§1) For cell proliferation assays, cells were grown in 10% FCS culture medium containing various amounts of IFNs and/or sodium stibogluconate in 96 well plates and cultured at 37° C. for 3 or 6 days as indicated. The numbers of viable cells in proliferation assays were determined by MTT assays as described in Phatak et al., J. Immunol. 167, 3391 (2001).

[5] = test system: MDA231 cells; experiment: MDA231 breast cancer cell growth, MTT assay; type: cell-based, human; details: single agent, 50-100 μg/ml, day 6
Protocol: as §1

[6] = test system: NB4 cells; experiment: NB4 differentiation, NBT reduction; type: cell-based, human
Protocol: Differentiation of AML cell lines was assessed by their ability to produce superoxide as measured by reduction of NBT to formazan and by analysis of expression of CD11b surface marker by flow cytometry. For NBT reduction, each cell suspension was mixed with an equal volume of solution containing 1 mg/ml of NBT (Sigma) and 2.5 µg/ml of TPA for 30 minutes at 37° C. After incubation, cells containing the purple formazan deposits and cells devoid of NBT-reducing activity (white cells) in each sample were determined by counting 200 cells under microscope. Data is expressed as a percentage based on the following ratio: purple cells/purple+white cells. For analysis of cell surface antigens, cells were exposed to phycoerythrin (PE)-conjugated murine anti-human CD11b (DAKO Corp., Carpinteria, Calif.). Analysis of fluorescence was performed on a FACScan flow cytometer (Beckton Dickinson, Mountain View, Calif.).

T1 sequence (O75365 whole entry): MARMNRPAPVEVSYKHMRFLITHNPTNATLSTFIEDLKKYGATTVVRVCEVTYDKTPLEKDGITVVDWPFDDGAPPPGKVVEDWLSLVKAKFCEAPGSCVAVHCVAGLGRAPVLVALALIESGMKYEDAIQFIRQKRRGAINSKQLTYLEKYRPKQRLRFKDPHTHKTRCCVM

O.O.O.O.O.O.O.O.O.O=C([O-])[C@@H]1[O][Sb]2([O-])([O][Sb]34([OH])[O][C@H]([C@H](O)CO)[C@H]([O]3)[C@H](C(=O)[O-])[O]4)[O][C@H]([C@H](O)CO)[C@@H]1[O]2.[Na+].[Na+].[Na+] [sodium stibogluconate]
inhibition of PRL-3 with DiFMUP substrate [1]: also detected
tolerance/survival of treated Balb/c mice [2]: tolerated; also recorded: all mice in the treatment group survived
killing of HEY cells [3]: near-complete cell killing
sensitivity/killing of WiT49-N1 cells [4]: sensitive; also recorded: complete or near complete killing
killing of MDA231 cells [5]: killed all cells; also recorded: complete or near complete killing
NB4 differentiation induction ([6]; 10 to 400 μg/ml, day 3 or day 6): differentiation induction activity at all of the dosages
reversal of NB4 differentiation after drug removal ([6]; 6 days with drug (10 or 100 μg/ml), washed, 6 days without): not reversed

From patent US20080226596A1, “Therapeutic compositions and methods useful in treating hepatitis” (priority 2006, published 2008)
